From a melting point compilation (Tetko et al.; mined from patent text by program, amines drawn as free bases though some values may be those of a salt)

Row | Compound | melting point
1 | COC(=O)CNc1cccc2c1C(=O)N(C1CCC(=O)NC1=O)C2=O (stereo not drawn) | 210 to 212 °C
2 | O=C1C(c2cccc(C(F)(F)F)c2Cl)=NN(CCCCC(F)(F)F)C2C=C(Cl)C=CC12 (stereo not drawn) | 137 to 138 °C
3 | CCCCCN(CCC12CC3CC(CC(C3)C1)C2)C(=O)NCC(CC)Cc1ccncc1 (stereo not drawn) | 72 to 77 °C
4 | Cc1cn(-c2cccc(C(=O)CC(=O)Nc3cc(-c4ccccc4F)ccc3NC(=O)OC(C)(C)C)c2)c(C)n1 | 145 °C
5 | CCCCCC1=C(/C=C/C(=O)O)Cc2cc(OC)ccc21 | 165 to 166 °C
6 | N#Cc1ccc(NC(=S)NCc2ccncc2)cc1 | 169 °C
7 | CCOc1cccc(F)c1C1OC(=O)NC1=O (stereo not drawn) | 127 to 128 °C
8 | O=C1OC(=O)C2=C1CCOc1ccccc12 | 142 to 143 °C
9 | NC(=N[N+](=O)[O-])NCCSCc1csc(NC(N)=NCC(F)(F)Cl)n1 | 112 to 116 °C
10 | Cc1ccc(N(c2ccc(-c3ccc(N(c4ccccc4)c4cccc(C)c4)cc3)cc2)c2ccc3ccc4cccc5ccc2c3c45)cc1 | 172 to 173 °C
11 | NS(=O)(=O)c1ncccc1O | 162 to 164 °C
12 | COc1cc(C(=O)Oc2ccc3c(OC(=O)c4ccc(O)c(OC)c4)c4cc(OC(=O)c5ccc(O)c(OC)c5)ccc4cc3c2)ccc1O | 206 °C
13 | CC(CCN1C(=O)c2ccccc2C1=O)=NO | 151 to 172 °C
14 | CCN(CC)CCNC(=O)c1cc(Cl)c(N)cc1OCCCCS(C)=O (stereo not drawn) | 80 to 83 °C
15 | COC(=O)C1=C(C)NC(C)=C(S(C)(=O)=O)C1c1ccccc1[N+](=O)[O-] (stereo not drawn) | 211 to 212 °C
16 | CC(=O)Nc1cc(-c2ccncc2)c[nH]c1=O | > 300 °C
17 | C=CCN(C(=O)Nc1cc(C)c(S(=O)(=O)C[N+](=O)[O-])c(C)c1)c1ccccc1 | 164 to 165 °C
18 | COc1cc2cc(C(=O)N3CC(CCl)c4c3cc(N)c3ccccc43)[nH]c2cc1OCCN(C)C (stereo not drawn) | 130 to 133 °C
19 | O=[N+]([O-])c1ccc(-c2nc3c(Cl)ncnc3o2)cc1 | 231 °C
20 | Cc1[nH]c2ccccc2c1CC(=O)N1CCN(C(c2ccc(F)cc2)c2ccc(F)cc2)CC1 | 93 to 103 °C

Row | Compound | melting point
21 | CC(C)c1nc(CN=[N+]=[N-])n(C)c1Sc1cc(Cl)cc(Cl)c1 | 84 to 85 °C
22 | CCC(=CC(CNC(=O)Cc1cccnc1)=NO)C(C)[N+](=O)[O-] (stereo not drawn) | 123 to 125 °C
23 | Cc1oc(-c2ccccc2)nc1COc1ccc(OC(C)(C)C(=O)O)cc1 | 136 to 138 °C
24 | CC(N1C(=O)C(=O)N(c2ccc(Br)cc2)C1=S)C(C)(C)C (stereo not drawn) | 207 to 208 °C
25 | CC(=O)NC(CCc1ccccc1)(COC(C)=O)COC(C)=O | 116 to 117 °C
26 | CCOC(=O)c1c(OC(C)C)c(Br)c(Br)n1Cc1ccccc1 | 46 to 48 °C
27 | CCCCCS(=O)(=O)NC(=O)/C=C/c1ccc(OCCOCCOC)cc1Oc1ncc(C(F)(F)F)cc1Cl | 81 to 83 °C
28 | Cc1c(C(F)(F)F)cnn(-c2cc(OCC3CC3)c(Cl)cc2F)c1=O | 82.3 °C
29 | FC(F)(F)Cn1cc(C#Cc2cccc(Br)c2)cn1 | 107 to 109 °C
30 | CN(c1ccc(N)cc1)c1nc(=O)c2cccnc2s1 | 250 °C
31 | CCC(O)c1ccc(Cl)c2nc3n(c12)CCCN3c1ccc(Cl)cc1Cl (stereo not drawn) | 233 to 235 °C
32 | COc1ccc(-c2ccc(Cl)cc2)cc1COCCc1cccc(NS(=O)(=O)C(F)(F)F)c1 | 99 to 101 °C
33 | COc1ccc(OC)c(C(=O)C#CC(=O)O)c1 | 91 to 93 °C
34 | O=C(OCCN1CCOC1=O)c1ccccc1Nc1ccnc2cc(C(F)(F)F)ccc12 | 124 to 125 °C
35 | CN(C)C=C1C(=O)CCc2c1cnn2C | 94 to 100 °C
36 | CCn1cc(C(=O)O)c(=O)c2cc(F)c(-n3ccnc3)c(F)c21 | 283 to 288 °C
37 | COc1ccc(Sc2ccc([N+](=O)[O-])cc2)c(Cl)c1Cl | 236 to 237 °C
38 | O=S(=O)(Nc1ccc2c(-c3ccccc3Cl)n[nH]c2c1)c1cccc(Cl)c1 | 187 to 189 °C
39 | O=[N+]([O-])c1cccc(-c2nnc(Cl)s2)c1 | 162 to 165 °C
40 | c1ccc(SCc2cc3ccccc3[nH]2)cc1 | 100 to 102 °C

Row | Compound | melting point
41 | COc1ccc(S(=O)(=O)Nc2ccc(F)cc2Nc2ccccc2)cc1 | 173 to 174 °C
42 | CCC(=O)Nc1cccc(NC(=O)C2CC2)c1 | 185 to 186 °C
43 | O=S(=O)(CC(O)(CBr)c1cccc(F)c1)c1ccccc1Cl (stereo not drawn) | 121 °C
44 | C=C(C)n1cc(C(=O)O)c(=O)c2cc(F)c(N3CC[C@H](N)C3)cc21 | 249 to 255 °C
45 | COc1ccc(S(=O)(=O)C(C)(Cc2ccc3ccccc3c2)C(=O)NO)cc1 (stereo not drawn) | 185 to 187 °C
46 | CC(C)(C(=O)O)c1ccc(OCCNC(=O)C2Cc3ccccc3N2S(=O)(=O)c2ccc(-c3cc(C(F)(F)F)ccc3Cl)cc2)cc1 (stereo not drawn) | 92 to 100 °C
47 | Fc1ccc2[nH]c3c4ccccc4nc-3c(Cl)c2c1 | 208 to 210 °C
48 | CCCCc1ncc(/C=C(\Cc2cccs2)C(=O)O)n1Cc1cccc(OC)c1[N+](=O)[O-] | 213 to 215 °C
49 | COc1c([N+](=O)[O-])ccc(C=O)c1OS(=O)(=O)c1ccccc1 | 74 to 76 °C
50 | CC(C)(C)OC(=O)N1CCN(C(=O)C(F)(F)F)CC1 | 66 to 68 °C
51 | N#CC1(Nc2ccccc2)CCN(C2CCCc3ccccc32)CC1 (stereo not drawn) | 152 to 153 °C
52 | CC(=O)NCC1CN(c2ccc(N3CCN(c4nc5cccc(F)c5o4)CC3)c(F)c2)C(=O)O1 (stereo not drawn) | 201 to 202 °C
53 | CN(C)CCCN1c2ccccc2C(c2ccccc2F)=Nc2cccnc21 | 92 to 94 °C
54 | COc1cc(OC(C)(C)C(=O)O)c(-c2cccs2)cc1C=CC(=O)c1ccc(C(=O)O)cc1 | 135 to 137 °C
55 | C#CCOc1nsc(SC(F)F)c1C#N | 83 to 84 °C
56 | COC(=O)c1cc2ccc(SCCCc3cc4c(cc3OCc3ccccc3)CC(CCc3ccccc3)O4)cc2nc1OC (stereo not drawn) | 96 to 98 °C
57 | COC(=O)c1ccc2c(c1)C(=O)c1ccccc1CO2 | 128 to 129 °C
58 | Nc1ccc(C(=S)N2CCCCC2)cc1 | 162 to 164 °C
59 | Cc1ccc2c(c1)c(-c1ccc(F)cc1)cn2N | 116 to 120 °C

More lines, now with the values ahead:

Row | melting point | Compound
60 | 90 to 90.5 °C | CC(=O)Oc1cc(/C=C/c2ccccc2)cc(OC(C)=O)c1
61 | 156 to 158 °C | CSc1nnc(-c2nn(C)c(C)c2S(N)(=O)=O)o1
62 | > 260 °C | Cc1cc(C)nc(NC(N)=S)n1
63 | 81 to 82 °C | CC(=O)c1ccc(Nc2ccccc2C(C)=C(Cl)Cl)cc1
64 | 72 to 73 °C | c1ccc(-c2ccnc3ccnn23)cc1
65 | 153 to 155 °C | CC1CCC(NC(=O)NS(=O)(=O)c2ccc(CCNC(=O)N3CC4CCCCC4C3=O)cc2)CC1 (stereo not drawn)
66 | 95.5 to 98 °C | COc1ccccc1NCN1CCOC1=O
67 | 180 to 190 °C | O=C1C(=O)N(c2ccc(F)cc2)c2ccc(F)cc21
68 | 120 to 121 °C | O=C(C=Cc1cccc(Cl)c1)C=Cc1cccc(Cl)c1
69 | 180 to 183 °C | Cn1nc(-c2ccnc(N[C@H]3CC[C@H](O)CC3)n2)c2ccccc21
70 | 212 to 213 °C | COc1ccc(-c2cc(N3CCOCC3)cc(=O)o2)cc1
71 | 292 to 296 °C | Cc1[nH]c2ccc(C3=NNC(=O)NC3C)cc2c1C (stereo not drawn)
72 | 155 °C | CCOC(=O)N1C=CC(c2c(-c3cccs3)nc3ccc(N4CCN(C(=O)OC(C)(C)C)CC4)nn23)C=C1
73 | 112 °C | COc1ccc(N(C)CCCOc2ccc3ccccc3c2)cc1
74 | 178 to 179 °C | COc1cc(OC)c2c(C)c(CCN3CCC(O)(c4ccccc4)CC3)c(=O)oc2c1
75 | 193 to 195 °C | CCCS(=O)(=O)c1ccccc1S(=O)(=O)NC(=O)Nc1nc(Cl)cc(OC)n1
76 | 59 to 60.5 °C | N#CCc1ccccc1CCc1ccc(Br)cc1
77 | 265 to 266 °C | CCCn1c(=O)c2[nH]c(/C=C/c3cccc(F)c3)nc2n(CCC)c1=O
78 | 86 to 88 °C | O=C1CCCCc2cc(OCC3CCCCC3)ccc21
79 | 196 to 198 °C | C=CC(=O)N1C(C)(C)CC(=C2CC(C)(C)N(C(=O)C=C)C(C)(C)C2)CC1(C)C

Row | melting point | Compound
80 | 140 to 141 °C | CN(C)c1nccc(-c2ccc(-c3ccc(N(c4ccccc4)c4ccccc4)cc3)cc2)n1
81 | 244 to 246 °C | CC(C)(C)c1cc(-c2c(NC(=O)Nc3ccc(F)cc3F)c(=O)oc3ccc(Cl)cc23)cc(C(C)(C)C)c1O
82 | 170 °C | O=C(c1cccs1)c1cnn2c(-c3cccc(-c4nnn(Cc5ccncc5)n4)c3)ccnc12
83 | 124 to 127 °C | CN(C)CC=NC(=O)c1cnn2c(-c3cccnc3)ccnc12
84 | 119 to 120 °C | CCOC(=O)Cc1nc(-c2ccc(Cl)cc2)oc1-c1cccs1
85 | 124 to 126 °C | COC(=O)/C=C(\C)C(C)Sc1nc(N)cc(Cl)n1 (stereo not drawn)
86 | 196 to 198 °C | Cc1nc(Cn2nc(-c3c(-c4ccccc4)nn4ccccc34)ccc2=O)cs1
87 | 90 to 96 °C | C=CCn1c(=O)c2cnc(Nc3ccc(OCCN(CC)CC)cc3)nc2n(C(C)C)c1=O
88 | 259 to 260 °C | Cc1cccc(C)c1CNc1cc(C(=O)NCCO)cc2c1nc(C)n2C
89 | 76 to 78 °C | CCCCCCCCCCOc1cc(OCCCCCCCCCC)cc(C(=O)C(=O)N(CC(=O)O)CC(=O)O)c1
90 | 149 to 150 °C | NCCSc1c(S(=O)(=O)c2ccccc2)c2ccccc2n1Cc1ccccc1
91 | 161 to 164 °C | Cn1c(COc2ccc(CC3SC(=O)NC3=O)cc2)nc2ccc(Oc3cccc(NC(=O)Nc4ccccc4C(F)(F)F)c3)cc21 (stereo not drawn)
92 | 141 °C | CC(C)(C)OC(=O)C[C@H](NS(=O)(=O)c1ccc2ccccc2c1)C(=O)O
93 | 93 to 94 °C | C=CCOc1cccc([N+](=O)[O-])c1OC
94 | 207 °C | Cc1cccc(C2(c3cccc(C)c3)CCC(=O)[C@H]3CN(C(=O)Cc4ccccc4)C[C@H]32)c1 (racemic)
95 | 218 to 220 °C | O=C1Cc2cc(CCN3CCN(c4nsc5ccccc45)CC3)c(Cl)cc2N1
96 | 192 to 193 °C | COCCn1cc(C(=O)NCc2ccc(Cl)cc2)c(=O)c2cc(CCl)sc21
97 | 79 °C | CCCCCCCCCCCCCCN(C)c1ccc(N)cc1C(=O)O
98 | 250 to 252 °C | Oc1ccc(-c2nc(-c3ccccc3)nc(-c3ccc(O)cc3O)n2)c(O)c1
